The kinase profiling compilation of Christmann-Franck et al. (2016)

Assays:
Assay in all cases: KINOMEscan competition binding
Settings in all cases: compound 10.0 µM
CDC2L2 (human) = CDC2L2 (human) (UniProt Q9UQ88)
LTK (human) = LTK (human) (UniProt P29376)
RPS6KA3 KD1 (human) = RPS6KA3 KD1 (human) (UniProt P51812)
MINK1 (human) = MINK1 (human) (UniProt Q8N4C8)
EPHA5 (human) = EPHA5 (human) (UniProt P54756)
MAPK1 (human) = MAPK1 (human) (UniProt P28482)
CDK9 (human) = CDK9 (human) (UniProt P50750)
PRKD1 (human) = PRKD1 (human) (UniProt Q15139)
ACVR2B (human) = ACVR2B (human) (UniProt Q13705)
[1] = target: JAK1 JH1 catalytic (human) (UniProt P23458)
DAPK2 (human) = DAPK2 (human) (UniProt Q9UIK4)
RIOK1 (human) = RIOK1 (human) (UniProt Q9BRS2)
ADCK3 (human) = ADCK3 (human) (UniProt Q8NI60)
MAPK9 (human) = MAPK9 (human) (UniProt P45984)
EPHA4 (human) = EPHA4 (human) (UniProt P54764)
TNK1 (human) = TNK1 (human) (UniProt Q13470)
FRK (human) = FRK (human) (UniProt P42685)
STK32B (human) = STK32B (human) (UniProt Q9NY57)
MAP3K5 (human) = MAP3K5 (human) (UniProt Q99683)
MAP4K4 (human) = MAP4K4 (human) (UniProt O95819)
STK10 (human) = STK10 (human) (UniProt O94804)
CDK3 (human) = CDK3 (human) (UniProt Q00526)
PAK1 (human) = PAK1 (human) (UniProt Q13153)
TGFBR2 (human) = TGFBR2 (human) (UniProt P37173)
MAP3K11 (human) = MAP3K11 (human) (UniProt Q16584)
LATS2 (human) = LATS2 (human) (UniProt Q9NRM7)
STK25 (human) = STK25 (human) (UniProt O00506)
RIOK3 (human) = RIOK3 (human) (UniProt O14730)
MAPK4 (human) = MAPK4 (human) (UniProt P31152)
TXK (human) = TXK (human) (UniProt P42681)
PTK2B (human) = PTK2B (human) (UniProt Q14289)
RPS6KA6 KD2 (human) = RPS6KA6 KD2 (human) (UniProt Q9UK32)
CIT (human) = CIT (human) (UniProt O14578)
CHEK2 (human) = CHEK2 (human) (UniProt O96017)
PAK6 (human) = PAK6 (human) (UniProt Q9NQU5)
CSNK1G1 (human) = CSNK1G1 (human) (UniProt Q9HCP0)
CSNK1G3 (human) = CSNK1G3 (human) (UniProt Q9Y6M4)
CAMK2G (human) = CAMK2G (human) (UniProt Q13555)
RIPK4 (human) = RIPK4 (human) (UniProt P57078)

JAK1 JH1 catalytic (human), sequence (P23458 whole entry, looked up): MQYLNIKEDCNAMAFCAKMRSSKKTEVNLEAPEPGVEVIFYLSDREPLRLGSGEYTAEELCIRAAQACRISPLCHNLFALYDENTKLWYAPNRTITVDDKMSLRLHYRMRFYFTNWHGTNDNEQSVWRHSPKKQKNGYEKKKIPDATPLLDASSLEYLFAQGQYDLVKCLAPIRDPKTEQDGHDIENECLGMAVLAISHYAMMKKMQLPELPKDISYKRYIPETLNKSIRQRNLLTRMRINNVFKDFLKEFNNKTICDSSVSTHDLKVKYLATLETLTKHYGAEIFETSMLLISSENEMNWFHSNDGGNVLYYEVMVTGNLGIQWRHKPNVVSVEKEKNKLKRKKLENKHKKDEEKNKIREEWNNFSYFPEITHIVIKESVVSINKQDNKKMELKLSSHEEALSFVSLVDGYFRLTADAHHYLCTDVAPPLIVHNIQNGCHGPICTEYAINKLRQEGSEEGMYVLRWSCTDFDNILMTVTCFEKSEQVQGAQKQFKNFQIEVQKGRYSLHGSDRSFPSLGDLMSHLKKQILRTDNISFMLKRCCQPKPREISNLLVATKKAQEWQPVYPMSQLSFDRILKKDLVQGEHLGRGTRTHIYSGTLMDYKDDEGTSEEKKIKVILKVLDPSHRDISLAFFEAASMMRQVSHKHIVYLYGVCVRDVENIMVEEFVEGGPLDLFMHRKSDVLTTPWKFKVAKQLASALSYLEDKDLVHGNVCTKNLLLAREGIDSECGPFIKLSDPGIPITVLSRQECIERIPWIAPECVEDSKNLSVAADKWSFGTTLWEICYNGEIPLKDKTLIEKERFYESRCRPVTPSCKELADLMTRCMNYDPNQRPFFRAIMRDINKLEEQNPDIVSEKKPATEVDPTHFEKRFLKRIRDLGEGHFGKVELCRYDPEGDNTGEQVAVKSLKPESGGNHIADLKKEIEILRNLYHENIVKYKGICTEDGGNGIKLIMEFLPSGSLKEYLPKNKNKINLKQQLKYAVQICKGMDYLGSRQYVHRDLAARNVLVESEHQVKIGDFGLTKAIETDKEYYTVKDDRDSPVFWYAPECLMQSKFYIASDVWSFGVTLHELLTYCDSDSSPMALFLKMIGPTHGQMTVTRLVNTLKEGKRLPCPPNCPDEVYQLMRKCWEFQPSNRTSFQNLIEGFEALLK
RPS6KA3 KD1 (human), sequence (P51812 whole entry, looked up): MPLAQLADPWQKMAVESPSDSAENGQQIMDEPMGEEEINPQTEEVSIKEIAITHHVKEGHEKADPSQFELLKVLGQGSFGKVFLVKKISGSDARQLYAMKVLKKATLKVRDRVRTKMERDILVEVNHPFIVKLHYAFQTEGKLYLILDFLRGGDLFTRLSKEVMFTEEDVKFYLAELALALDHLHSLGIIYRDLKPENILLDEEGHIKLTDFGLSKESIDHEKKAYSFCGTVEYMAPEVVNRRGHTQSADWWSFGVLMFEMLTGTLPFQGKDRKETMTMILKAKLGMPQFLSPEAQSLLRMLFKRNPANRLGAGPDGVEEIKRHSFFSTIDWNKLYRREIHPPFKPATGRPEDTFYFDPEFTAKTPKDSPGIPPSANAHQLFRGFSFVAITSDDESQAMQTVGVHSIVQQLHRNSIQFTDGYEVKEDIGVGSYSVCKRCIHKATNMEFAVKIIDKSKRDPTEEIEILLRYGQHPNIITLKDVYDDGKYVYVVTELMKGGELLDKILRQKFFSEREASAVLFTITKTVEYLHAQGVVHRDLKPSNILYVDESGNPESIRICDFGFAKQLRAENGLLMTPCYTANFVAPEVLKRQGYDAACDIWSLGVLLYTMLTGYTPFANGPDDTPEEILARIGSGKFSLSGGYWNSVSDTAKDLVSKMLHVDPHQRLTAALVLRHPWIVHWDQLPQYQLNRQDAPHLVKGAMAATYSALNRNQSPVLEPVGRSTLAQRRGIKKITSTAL
RIOK1 (human), sequence (Q9BRS2 whole entry, looked up): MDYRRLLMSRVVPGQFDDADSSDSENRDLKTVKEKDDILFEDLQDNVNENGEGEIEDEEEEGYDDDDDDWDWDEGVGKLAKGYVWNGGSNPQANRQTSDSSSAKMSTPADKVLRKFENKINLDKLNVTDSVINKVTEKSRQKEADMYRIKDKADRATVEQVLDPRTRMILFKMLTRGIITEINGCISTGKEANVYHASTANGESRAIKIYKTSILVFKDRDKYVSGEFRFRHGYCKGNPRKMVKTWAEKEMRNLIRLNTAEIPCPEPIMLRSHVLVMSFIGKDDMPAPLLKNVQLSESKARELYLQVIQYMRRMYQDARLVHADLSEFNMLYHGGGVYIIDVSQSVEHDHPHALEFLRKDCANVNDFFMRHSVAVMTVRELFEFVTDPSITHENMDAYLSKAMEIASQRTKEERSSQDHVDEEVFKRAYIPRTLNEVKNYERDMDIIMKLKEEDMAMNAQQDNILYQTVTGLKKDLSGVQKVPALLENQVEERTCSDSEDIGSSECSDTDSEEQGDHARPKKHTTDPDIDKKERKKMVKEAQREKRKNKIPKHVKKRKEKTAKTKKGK
LATS2 (human), sequence (Q9NRM7 whole entry, looked up): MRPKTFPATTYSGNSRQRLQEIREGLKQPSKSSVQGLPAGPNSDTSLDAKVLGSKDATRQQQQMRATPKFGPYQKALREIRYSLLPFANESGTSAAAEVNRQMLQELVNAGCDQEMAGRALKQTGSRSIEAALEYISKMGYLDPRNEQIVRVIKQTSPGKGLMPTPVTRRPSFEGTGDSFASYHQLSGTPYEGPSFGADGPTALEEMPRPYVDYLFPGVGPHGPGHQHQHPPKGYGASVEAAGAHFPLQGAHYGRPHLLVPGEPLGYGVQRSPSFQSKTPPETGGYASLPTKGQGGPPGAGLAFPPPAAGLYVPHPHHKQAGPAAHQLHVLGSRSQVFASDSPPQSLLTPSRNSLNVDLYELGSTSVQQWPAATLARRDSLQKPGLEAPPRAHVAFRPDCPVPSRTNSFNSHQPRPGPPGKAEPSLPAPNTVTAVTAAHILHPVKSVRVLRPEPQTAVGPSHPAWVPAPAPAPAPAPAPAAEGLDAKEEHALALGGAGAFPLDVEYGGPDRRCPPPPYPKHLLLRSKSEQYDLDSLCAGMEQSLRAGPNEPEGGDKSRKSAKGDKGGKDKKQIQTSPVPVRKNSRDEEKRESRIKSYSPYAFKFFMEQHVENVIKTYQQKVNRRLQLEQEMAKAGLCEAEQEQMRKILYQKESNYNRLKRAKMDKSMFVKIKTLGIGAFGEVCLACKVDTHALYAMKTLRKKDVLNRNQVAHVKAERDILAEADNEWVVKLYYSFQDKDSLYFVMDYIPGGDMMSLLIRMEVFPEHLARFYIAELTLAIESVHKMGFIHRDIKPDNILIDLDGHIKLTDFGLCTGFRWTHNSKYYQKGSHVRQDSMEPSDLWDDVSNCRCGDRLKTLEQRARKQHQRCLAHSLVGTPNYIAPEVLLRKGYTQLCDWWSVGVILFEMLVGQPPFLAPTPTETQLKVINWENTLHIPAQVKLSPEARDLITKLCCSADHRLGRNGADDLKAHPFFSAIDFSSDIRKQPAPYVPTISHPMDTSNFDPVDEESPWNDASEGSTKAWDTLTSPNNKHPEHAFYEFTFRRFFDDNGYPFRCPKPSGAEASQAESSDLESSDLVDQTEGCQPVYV
MAP3K5 (human), sequence (Q99683 whole entry, looked up): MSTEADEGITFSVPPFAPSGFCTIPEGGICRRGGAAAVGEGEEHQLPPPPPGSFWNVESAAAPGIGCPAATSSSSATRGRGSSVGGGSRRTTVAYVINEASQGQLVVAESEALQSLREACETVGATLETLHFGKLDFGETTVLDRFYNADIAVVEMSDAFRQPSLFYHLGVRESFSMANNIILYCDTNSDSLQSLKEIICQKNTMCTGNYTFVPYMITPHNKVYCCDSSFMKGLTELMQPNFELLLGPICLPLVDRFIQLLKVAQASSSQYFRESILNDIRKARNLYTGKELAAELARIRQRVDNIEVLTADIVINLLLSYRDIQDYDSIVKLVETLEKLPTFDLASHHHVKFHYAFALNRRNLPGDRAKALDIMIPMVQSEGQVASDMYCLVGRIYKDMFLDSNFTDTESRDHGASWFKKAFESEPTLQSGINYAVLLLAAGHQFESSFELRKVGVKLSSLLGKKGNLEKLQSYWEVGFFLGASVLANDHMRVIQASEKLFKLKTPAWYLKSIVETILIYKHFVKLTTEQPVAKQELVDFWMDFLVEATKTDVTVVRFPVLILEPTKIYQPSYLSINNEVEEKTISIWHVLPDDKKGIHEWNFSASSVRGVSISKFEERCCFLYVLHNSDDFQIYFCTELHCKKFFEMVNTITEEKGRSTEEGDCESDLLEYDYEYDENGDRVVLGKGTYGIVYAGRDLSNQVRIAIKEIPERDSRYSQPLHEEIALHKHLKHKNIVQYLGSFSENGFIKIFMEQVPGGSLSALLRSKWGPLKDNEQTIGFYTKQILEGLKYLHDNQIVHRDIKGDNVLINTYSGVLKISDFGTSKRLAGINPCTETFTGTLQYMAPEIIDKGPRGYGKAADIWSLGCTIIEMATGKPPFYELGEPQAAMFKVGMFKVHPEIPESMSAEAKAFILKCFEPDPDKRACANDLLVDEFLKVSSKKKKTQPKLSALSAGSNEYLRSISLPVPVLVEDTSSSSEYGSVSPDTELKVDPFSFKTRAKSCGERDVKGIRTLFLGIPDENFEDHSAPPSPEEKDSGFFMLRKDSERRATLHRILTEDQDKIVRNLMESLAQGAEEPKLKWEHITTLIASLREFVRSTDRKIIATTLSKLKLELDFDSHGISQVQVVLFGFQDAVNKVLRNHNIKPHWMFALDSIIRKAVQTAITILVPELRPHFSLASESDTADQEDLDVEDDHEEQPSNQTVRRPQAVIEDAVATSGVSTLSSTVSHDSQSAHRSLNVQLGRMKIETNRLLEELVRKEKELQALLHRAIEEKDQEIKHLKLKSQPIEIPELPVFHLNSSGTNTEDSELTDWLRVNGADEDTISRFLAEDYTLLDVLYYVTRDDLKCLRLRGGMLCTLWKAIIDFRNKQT

`C[C@@H](Oc1cc(-n2cnc3ccc(CN4CCN(C)CC4)cc32)sc1C(N)=O)c1ccccc1C(F)(F)F` showed a kinase still bound, per cent of control (CDC2L2 (human)) of 100%, a kinase still bound, per cent of control (LTK (human)) of 100% and a kinase still bound, per cent of control (RPS6KA3 KD1 (human)) of 0.5%. For the same molecule, the kinase still bound, per cent of control (MINK1 (human)) was 29%, the kinase still bound, per cent of control (EPHA5 (human)) was 100% and the kinase still bound, per cent of control (MAPK1 (human)) was 100%. The kinase still bound, per cent of control (CDK9 (human)) was 93%, the kinase still bound, per cent of control (PRKD1 (human)) was 20% and the kinase still bound, per cent of control (ACVR2B (human)) was 100%. It also gave a kinase still bound, per cent of control [1] of 100%, a kinase still bound, per cent of control (DAPK2 (human)) of 15% and a kinase still bound, per cent of control (RIOK1 (human)) of 4.4%. The kinase still bound, per cent of control (ADCK3 (human)) was 77%, the kinase still bound, per cent of control (MAPK9 (human)) was 100% and the kinase still bound, per cent of control (EPHA4 (human)) was 100%. It also gave a kinase still bound, per cent of control (TNK1 (human)) of 87%, a kinase still bound, per cent of control (FRK (human)) of 100% and a kinase still bound, per cent of control (STK32B (human)) of 100%. For the same molecule, the kinase still bound, per cent of control (MAP3K5 (human)) was 100%, the kinase still bound, per cent of control (MAP4K4 (human)) was 64% and the kinase still bound, per cent of control (STK10 (human)) was 0%. For the same molecule, the kinase still bound, per cent of control (CDK3 (human)) was 100%, the kinase still bound, per cent of control (PAK1 (human)) was 100% and the kinase still bound, per cent of control (TGFBR2 (human)) was 100%. For the same molecule, the kinase still bound, per cent of control (MAP3K11 (human)) was 75%, the kinase still bound, per cent of control (LATS2 (human)) was 42% and the kinase still bound, per cent of control (STK25 (human)) was 83%. The kinase still bound, per cent of control (RIOK3 (human)) was 6.6%, the kinase still bound, per cent of control (MAPK4 (human)) was 100% and the kinase still bound, per cent of control (TXK (human)) was 71%. For the same molecule, the kinase still bound, per cent of control (PTK2B (human)) was 82%, the kinase still bound, per cent of control (RPS6KA6 KD2 (human)) was 73% and the kinase still bound, per cent of control (CIT (human)) was 87%. It also gave a kinase still bound, per cent of control (CHEK2 (human)) of 69%, a kinase still bound, per cent of control (PAK6 (human)) of 98% and a kinase still bound, per cent of control (CSNK1G1 (human)) of 100%. It also gave a kinase still bound, per cent of control (CSNK1G3 (human)) of 100%, a kinase still bound, per cent of control (CAMK2G (human)) of 15% and a kinase still bound, per cent of control (RIPK4 (human)) of 52%.
